Experimental data taken from patent US20150329515A1, “COMPOSITION AND METHOD FOR TREATING OR PREVENTING INFLUENZA VIRUS INFECTION” (National Defense Medical Center, priority 2014, published 2015).
Where two headings read alike, the source gives them in different places.

Columns and labels:
[1] = tested on: Tamiflu-resistant 2009 pandemic influenza A (H1N1) virus (H275Y mutation in neuraminidase); settings: for SI (selective index = CC50/EC50), H1N1 Tamiflu-resistant: dog
[2] = tested on: Madin-Darby canine kidney (MDCK) cells
[3] = tested on: H1N1 influenza virus; test: In vitro anti-H1N1 influenza virus activity (oseltamivir footnote); type: cell-based
[4] = tested on: Tamiflu-resistant 2009 pandemic influenza A (H1N1) virus (H275Y mutation in neuraminidase); test: in vitro; settings: dog, SI (selective index = CC50/EC50)
[5] = in vitro; settings: dog, CC50 (μM)
[6] = read-out: EC50 (μM), H1N1 Tamiflu-resistant virus
[7] = read-out: EC50 (μM), H1N1 Tamiflu-resistant

Compound	EC50 [1, 6] [µM]	CC50 [2] [µM]	EC50 [1, 7] [µM]	selectivity ratio ([4]; H1N1 Tamiflu-resistant)	CC50 [5] [µM]	other results
O=C(O)c1ccc(-c2cc(=O)c3c(O)c(O)c(O)cc3o2)cc1 [Compound 3h]	39.7	> 300	–	–	–	SI (selective index = CC50/EC50), H1N1 Tamiflu-resistant virus [1]: >7.6
CCOC(=O)C1=C[C@@H](OC(CC)CC)[C@H](NC(C)=O)[C@@H](N)C1 [oseltamivir, reference compound]	–	–	–	–	–	EC50 [3]: 32 µM; activity against H1N1 Tamiflu-resistant virus [1]: void of activity
O=c1cc(-c2ccc(F)c(Br)c2)oc2cc(O)c(O)c(O)c12 [Compound 3g]	204	> 300	–	–	–	SI (selective index = CC50/EC50), H1N1 Tamiflu-resistant virus [1]: >1.5
COc1cc2oc(-c3ccc(Br)cc3)cc(=O)c2c(OC)c1OC [Compound 2m, 2-(4-Bromophenyl)-5,6,7-trimethoxy-4H-chromen-4-one]	–	–	192	0.7	128	–
O=c1cc(-c2cccc(Br)c2)oc2cc(O)c(O)c(O)c12 [Compound 6b, 2-(3-Bromophenyl)-5,6,7-trihydroxy-4H-chromen-4-one]	4.5	–	4.5	> 66.7	> 300	SI (selective index = CC50/EC50), H1N1 Tamiflu-resistant [1]: >66.7; selectivity ratio ([4]; H1N1 Tamiflu-resistant virus): > 66.7
COc1cc2oc(-c3ccc(Br)cc3)cc(=O)c2c(O)c1OC [Compound 4c, 2-(4-Bromophenyl)-5-hydroxy-6,7-dimethoxy-4H-chromen-4-one]	–	–	4.2	> 66.7	> 300	SI (selective index = CC50/EC50), H1N1 Tamiflu-resistant [1]: >71.4
O=c1cc(-c2cccc(Cl)c2)oc2cc(O)c(O)c(O)c12 [Compound 3c]	50	> 300	–	–	–	SI (selective index = CC50/EC50), H1N1 Tamiflu-resistant virus [1]: >6.0
O=c1cc(-c2ccccc2)oc2cc(O)c(O)c(O)c12 [Baicalein, reference compound]	–	–	46.2	> 6.5	> 300	selectivity ratio ([4]; H1N1 Tamiflu-resistant virus): > 3.3
COc1c(O)cc2oc(-c3ccc(Br)cc3)cc(=O)c2c1O [Compound 5c, 2-(4-Bromophenyl)-5,7-dihydroxy-6-methoxy-4H-chromen-4-one]	–	–	4.3	> 66.7	> 300	SI (selective index = CC50/EC50), H1N1 Tamiflu-resistant [1]: >70.0
O=c1cc(-c2ccc(Cl)cc2Cl)oc2cc(O)c(O)c(O)c12 [Compound 3e]	73.7	> 300	–	–	–	SI (selective index = CC50/EC50), H1N1 Tamiflu-resistant virus [1]: >4.1
COc1c(O)cc2oc(-c3cccc(Br)c3)cc(=O)c2c1O [Compound 5b, 2-(3-Bromophenyl)-5,7-dihydroxy-6-methoxy-4H-chromen-4-one]	–	–	4.3	> 66.7	> 300	SI (selective index = CC50/EC50), H1N1 Tamiflu-resistant [1]: >69.8
NC(=O)c1ncn([C@@H]2O[C@H](CO)[C@@H](O)[C@H]2O)n1 [Ribavirin, reference compound]	25.6	–	25.6	> 11.7	> 300	selectivity ratio ([4]; H1N1 Tamiflu-resistant virus): > 11.7
COc1c(O)cc2oc(-c3ccccc3Br)cc(=O)c2c1O [Compound 5a, 2-(2-Bromophenyl)-5,7-dihydroxy-6-methoxy-4H-chromen-4-one]	–	–	8.6	> 34.9	> 300	–
O=c1cc(-c2ccccc2Cl)oc2cc(O)c(O)c(O)c12 [Compound 3b]	10.2	> 300	–	–	–	–
O=c1cc(-c2ccc(-c3ccccc3)cc2)oc2cc(O)c(O)c(O)c12 [Compound 3i]	72	> 300	–	–	–	SI (selective index = CC50/EC50), H1N1 Tamiflu-resistant virus [1]: >4.2
O=c1cc(-c2ccccc2)oc2cc(O)c(O)c(O)c12 [Compound 3a]	92.3	> 300	–	–	–	–
O=c1cc(-c2ccc(Br)cc2)oc2cc(O)c(O)c(O)c12 [Compound 6c, 2-(4-Bromophenyl)-5,6,7-trihydroxy-4H-chromen-4-one]	4.5	–	4.5	> 66.7	> 300	SI (selective index = CC50/EC50), H1N1 Tamiflu-resistant [1]: >66.7; selectivity ratio ([4]; H1N1 Tamiflu-resistant virus): > 66.7
O=c1cc(-c2ccc(Cl)cc2)oc2cc(O)c(O)c(O)c12 [Compound 3d]	10.2	> 300	–	–	–	–
COc1cc2oc(-c3ccccc3Br)cc(=O)c2c(O)c1OC [Compound 4a, 2-(2-Bromophenyl)-5-hydroxy-6,7-dimethoxy-4H-chromen-4-one]	–	–	16.1	8.3	133	–
COc1cc2oc(-c3ccccc3Br)cc(=O)c2c(OC)c1OC [Compound 2k, 2-(2-Bromophenyl)-5,6,7-trimethoxy-4H-chromen-4-one]	–	–	16	8	128	–
COc1cc2oc(-c3cccc(Br)c3)cc(=O)c2c(O)c1OC [Compound 4b, 2-(3-Bromophenyl)-5-hydroxy-6,7-dimethoxy-4H-chromen-4-one]	–	–	4.2	> 15.8	66.5	–
COc1cc2oc(-c3cccc(Br)c3)cc(=O)c2c(OC)c1OC [Compound 2l, 2-(3-Bromophenyl)-5,6,7-trimethoxy-4H-chromen-4-one]	–	–	4	> 8	32.1	–
O=c1cc(-c2ccccc2Br)oc2cc(O)c(O)c(O)c12 [Compound 6a, 2-(2-Bromophenyl)-5,6,7-trihydroxy-4H-chromen-4-one]	9	–	9	> 33.3	> 300	selectivity ratio ([4]; H1N1 Tamiflu-resistant virus): > 33.3
O=C(O)[C@H]1O[C@@H](Oc2cc3oc(-c4ccccc4)cc(=O)c3c(O)c2O)[C@H](O)[C@@H](O)[C@@H]1O [Baicalin, reference compound]	–	–	69.3	> 4.3	> 300	–
O=c1cc(-c2ccc([N+](=O)[O-])cc2)oc2cc(O)c(O)c(O)c12 [Compound 3j]	18.1	> 300	–	–	–	SI (selective index = CC50/EC50), H1N1 Tamiflu-resistant virus [1]: >16.6
